The values below come from patent US20230416261A1, “ETHANEDIAMINE-HETEROCYCLE DERIVATIVES AS INHIBITORS OF PROTEIN ARGININE METHYLTRANSFERASES” (Board of Regents, The University of Texas System, priority 2021, published 2023).

A word on the IC50: it is the concentration that gives 50% inhibition.

The target in experiment [1] is T1, PRMT1 (Homo sapiens, UniProt Q99873). The experiment is described as follows: PRMT1 RKO Cellular Target Engagement Assay (In-Cell Western, asymmetric di-methyl arginine). The settings on record: RKO cells, 48 hr compound incubation; read-out: RKO IC50 (PRMT-1 Target Engagement). It is filed as cell-based. The protocol:
RKO cells were routinely maintained in EMEM media (ATCC, Catalog #30-2003) supplemented with 10% fetal bovine serum (Sigma, Catalog #F2442) using a humidified incubator (37° C., 5% CO2, and ambient O2).
In preparation for the In-Cell Western assay, cells were harvested and resuspended in EMEM media supplemented with 10% fetal bovine serum. Cells were seeded onto a 384 well, black, clear bottom, Poly-D-Lysine coated tissue culture plate (Greiner, Catalog #781946) at a density of 1,000 cells/well in a volume of 40 μL. The culture plate was incubated for 24 hr at 37° C. with 5% CO2 and ambient O2. Stock solutions of the test compounds were prepared in 100% DMSO (Sigma, Catalog #D2650) and serially diluted 1:3 using 100% DMSO. Compounds were additionally diluted 1:40 in culture medium, and 10 μL/well was transferred to the tissue culture plate. Following the compound addition the microplate was incubated at 37° C. for 48 hr.
The media was removed, the plate was washed with 1× PBS (Fisher Bioreagents, Catalog #BP399-20), and cells were fixed for 10 min using 30 μL/well of 4% paraformaldehyde (Electron Microscopy Sciences, Catalog #15710). The paraformaldehyde was removed, the plate was again washed with 1× PBS, and cells were permeabilized for 15 min using 30 μL/well of 1× PBS containing 0.5% Triton-X 100 (Sigma, Catalog #1001748095). The permeabilization buffer was removed, the plate was washed with 1× PBST (Boston BioProducts, Catalog #IBB-171X), and 50 μL/well of blocking buffer (LI-COR, Catalog #927-40000) was added followed by a 1 hour incubation at room temperature. The blocking buffer was removed, and 20 μL/well of anti-asymmetric di-methyl arginine antibody (Cell Signaling, Catalog #13522S) diluted 1:1000 in LI-COR blocking buffer was added to the plate and incubated overnight, in the dark at 4° C.
The primary antibody was then removed, and the plate was washed three times with 1× PBST. 20 μL/well of CellTag (LI-COR, Catalog #926-41090) and IRDye 800CW goat anti-rabbit IgG antibody (LI-COR, Catalog #926-32211), each diluted 1:500 in LI-COR blocking buffer supplemented with 0.1% Tween-20 (Thermo Scientific, Catalog #85114), were added to the plate. The plate was then incubated in the dark, at room temperature for 1 hour followed by three washes with 1× PBST and one wash with H2O. The IRDye secondary antibody signal (800 channel) and the CellTag signal (700 channel) were measured using a Licor Odyssey Imager, and the 800 channel signal was then normalized to the 700 channel signal. IC50 values were calculated using a four-parameter logistic curve fit using Genedata Screener software.

In the next experiment the test system is DOHH2 cells. As to the kind of experiment: DOHH2 Long Term Phenotypic Assay (7 days, Cell Titer-Glo viability). Particulars: Cell Titer-Glo 2.0. Type of experiment: cell-based. The protocol:
DOHH2 cells were kindly provided by Michael Green (MDACC). The cells were routinely maintained in RPMI-1640 Medium (ATCC, Catalog #30-2001) supplemented with 10% fetal bovine serum (Sigma, Catalog #F2442), 100 units/mL penicillin and 100 μg/mL streptomycin (Gibco, Catalog #15140-122) in a humidified incubator (37° C., 5% CO2). Cells were seeded onto a white, CulturPlate-384 (Perkin Elmer, catalog #6007680) at a density of 250 cells per well in a volume of 50 μL. Stock solutions of the test compounds were prepared in 100% DMSO (Sigma, Catalog #D2650) and serially diluted 1:3 using 100% DMSO. Compounds were additionally diluted 1:33 in culture medium, and 10 μL/well was transferred to the tissue culture plate. Following the compound addition, the plate was incubated at 37° C. and 5% CO2 for 7 days. Cells were then mixed and a 30 μL volume was removed. Viability was assessed by a 30 μL addition of Cell Titer-Glo 2.0 (Promega, catalog #G9243). The plate was then shaken on an orbital shaker at 300 RPM for 10 minutes at room temperature, in the dark. Luminescence was measured using a PerkinElmer Envision™ plate reader. IC50 values were calculated using a four-parameter logistic curve fit using Genedata Screener software.

The target of experiment [2] is T1, PRMT1. As to the kind of experiment: PRMT1 Enzymatic Assay (LANCE TR-FRET, methylation of histone H4 at Arg3). Type of experiment: biochemical. More on the design: purchased SignalChem P365-380G. The settings on record: PRMT1 1.5 nM, SAM 1 μM, biotinylated histone H4 (1-21) 25 nM; read-out: PRMT-1 IC50. The method, then:
In order to measure PRMT1 enzymatic activity the LANCE TR-FRET assay from PerkinElmer was used to follow the methylation of histone H4 at Arg3 using S-adenosyl-L-methionine (SAM) as the methyl group donor.
This enzymatic assay was performed in a 384 well, white, low volume plate (PerkinElmer, Catalog 6008289) with assay buffer consisting of 50 mM Hepes (pH 8) (Teknova, Catalog #H1090), 1 mM TCEP (Sigma, Catalog #C4706), and 0.003% Tween-20 (Thermo, Catalog #85114). Stock solutions of the test compounds were prepared in 100% DMSO (Sigma, Catalog #D2650) and serially diluted 1:3 using 100% DMSO. Compounds were additionally diluted 1:40 in assay buffer, and 2 uL/well were transferred to the assay plate. 4 uL/well (final concentration 1.5 nM) of PRMT1 protein (SignalChem, Catalog #P365-380G) diluted in assay buffer was added to the assay plate followed by a 15 min preincubation at room temperature. 4 uL/well of SAM (Sigma, Catalog #A7007) and biotinylated histone H4 (1-21) (AnaSpec, Catalog #62555) (final concentrations 1 μM and 25 nM, respectively) diluted in assay buffer were then added to the assay plate followed by a 1 hour reaction time. Final concentrations of PRMT1, SAM, and histone H4 (1-21) refer to a […].
Detection of methylated histone H4 (H4R^3me) was achieved by combining LANCE Ultra Europium-anti-H4R^3me antibody (PerkinElmer, Catalog #TRF04-14), LANCE Ultra ULight-anti-streptavidin antibody (PerkinElmer, Catalog #TRF0102), and sinefungin (Sigma, Catalog #S8559) (final concentrations 2 nM, 50 nM, and 100 μM respectively) in 1× LANCE detection buffer (PerkinElmer, Catalog #CR97-100) and adding L/well of the detection solution to the assay plate. Detection reagents were allowed to react for 1 hour at room temperature. Final concentrations in the detection solution refer to a L volume. The europium fluorescence signal and the ULight TR-FRET signal were measured using a BioTek Synergy Neo plate reader: excitation at 330 nm, emission at 620 nm and 665 nm respectively, and the ratio of the two signals (665 nm/620 nm) was used for curve fitting. IC50 values were calculated using a four-parameter logistic curve fit using Genedata Screener software.

The structures appear in SMILES notation.

T1 sequence (Q99873 whole entry): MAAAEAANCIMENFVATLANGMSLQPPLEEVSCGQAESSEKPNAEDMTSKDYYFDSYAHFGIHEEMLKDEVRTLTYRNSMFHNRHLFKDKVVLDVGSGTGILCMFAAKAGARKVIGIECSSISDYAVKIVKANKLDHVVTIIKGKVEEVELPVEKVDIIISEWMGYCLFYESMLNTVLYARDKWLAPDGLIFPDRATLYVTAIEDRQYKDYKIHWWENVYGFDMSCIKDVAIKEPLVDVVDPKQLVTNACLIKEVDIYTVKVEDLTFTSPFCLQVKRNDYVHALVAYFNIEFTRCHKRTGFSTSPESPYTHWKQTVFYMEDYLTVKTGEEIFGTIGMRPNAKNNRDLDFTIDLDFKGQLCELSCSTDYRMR

With `CCC1(C(=O)N2CCn3nc(CN(C)CCNC)c(C4CCC(COC)(COC)CC4)c3C2)CCC1` [Example 67, (3-(4,4-bis(methoxymethyl)-cyclohexyl)-2-((methyl(2-(methylamino)ethyl)amino)-methyl)-6,7-dihydropyrazolo-[1,5-a]pyrazin-5(4H)-yl)(1-ethylcyclobutyl)methanone], the IC50 on PRMT1 [1] is 273 nM; in the experiment on DOHH2 cells (Homo sapiens, DOHH-2, 168 h), 156 nM; at PRMT1 [2] it was 75 nM.

With `CNCCN(C)Cc1nn2c(c1C1CCC(COC)(COC)CC1)CN(C(=O)C(C)(C)OC)CC2` [Example 69, 1-(3-(4,4-bis(methoxy-methyl)cyclohexyl)-2-((methyl(2-(methylamino)-ethyl)amino)methyl)-6,7-dihydropyrazolo[1,5-a]-pyrazin-5(4H)-yl)-2-methoxy-2-methylpropan-1-one], the IC50 at PRMT1 [1] was found to be 430 nM; in the experiment with DOHH2 cells (Homo sapiens, DOHH-2, 168 h) it was 474 nM; on PRMT1 [2], 320 nM.

As to `COCC1(COC)CCC(c2c(CN(C)CCN)nn3c2CN(C(=O)C(C)(C)C(F)(F)F)CC3)CC1` [Example 70, 1-(2-(((2-aminoethyl)-(methyl)amino)methyl)-3-(4,4-bis(methoxymethyl)-cyclohexyl)-6,7-dihydro-pyrazolo[1,5-a]pyrazin-5(4H)-yl)-3,3,3-trifluoro-2,2-dimethylpropan-1-one], the 50% inhibitory concentration (IC50) on PRMT1 [1] is 260 nM; in the experiment on DOHH2 cells (Homo sapiens, DOHH-2, 168 h) it was 195 nM; on PRMT1 [2], 44 nM.

Take `CNCCN(C)Cc1nn2c(c1C1CCC(COC)(COC)CC1)CN(C(=O)C(C)(C)O)CC2` [Example 71, 1-(3-(4,4-bis(methoxy-methyl)cyclohexyl)-2-((methyl(2-(methylamino)-ethyl)amino)methyl)-6,7-dihydropyrazolo[1,5-a]-pyrazin-5(4H)-yl)-2-hydroxy-2-methylpropan-1-one]: the IC50 was 3480 nM at PRMT1 [1]; 962 nM in the experiment with DOHH2 cells (Homo sapiens, DOHH-2, 168 h); 266 nM at PRMT1 [2].

Consider `CNCCN(C)Cc1nn2c(c1C1CCC(COC)(COC)CC1)CN(C(=O)C(C)COC)CC2` (stereo not drawn) [Example 72, 1-(3-(4,4-bis(methoxy-methyl)cyclohexyl)-2-((methyl(2-(methylamino)-ethyl)amino)methyl)-6,7-dihydropyrazolo[1,5-a]-pyrazin-5(4H)-yl)-3-methoxy-2-methylpropan-1-one], for which the IC50 on PRMT1 [1] came to 315 nM; in the experiment with DOHH2 cells (Homo sapiens, DOHH-2, 168 h) it was 310 nM; at PRMT1 [2], 112 nM.

As for `CNCCN(C)Cc1nn2c(c1C1CCC(COC)(COC)CC1)CN(C(=O)C1CCOC1(C)C)CC2` (stereo not drawn) [Example 73, (3-(4,4-bis(methoxymethyl)-cyclohexyl)-2-((methyl(2-(methylamino)ethyl)amino)-methyl)-6,7-dihydropyrazolo-[1,5-a]pyrazin-5(4H)-yl)(2,2-dimethyltetrahydrofuran-3-yl)methanone], the IC50 at PRMT1 [1] turned out to be 470 nM; with DOHH2 cells (Homo sapiens, DOHH-2, 168 h), 575 nM; at PRMT1 [2], 118 nM.

In the case of `CNCCN(C)Cc1nn2c(c1C1CCC(COC)(COC)CC1)CN(C(=O)C1CC(C)(O)C1)CC2` (stereo not drawn) [Example 75, (3-(4,4-bis(methoxymethyl)-cyclohexyl)-2-((methyl(2-(methylamino)ethyl)amino)-methyl)-6,7-dihydropyrazolo-[1,5-a]pyrazin-5(4H)-yl)(3-hydroxy-3-methylcyclobutyl)methanone], the IC50 was found to be 5650 nM on PRMT1 [1]; 1440 nM in the experiment on DOHH2 cells (Homo sapiens, DOHH-2, 168 h); 70 nM on PRMT1 [2].

As for `CNCCN(C)Cc1nn2c(c1C1CCC(COC)(COC)CC1)CN(C(=O)C1(C)CCOC1)CC2` (stereo not drawn) [Example 76, (3-(4,4-bis(methoxymethyl)-cyclohexyl)-2-((methyl(2-(methylamino)ethyl)amino)-methyl)-6,7-dihydropyrazolo-[1,5-a]pyrazin-5(4H)-yl)(3-methyltetrahydrofuran-3-yl)-methanone], the IC50 was 363 nM at PRMT1 [1]; 94 nM in the experiment on DOHH2 cells (Homo sapiens, DOHH-2, 168 h); 86 nM on PRMT1 [2].

Consider `CNCCN(C)Cc1nn2c(c1C1CCC(COC)(COC)CC1)CN(C(=O)C1CC(C)(C)C1)CC2` [Example 77, (3-(4,4-bis(methoxymethyl)-cyclohexyl)-2-((methyl(2-(methylamino)ethyl)amino)-methyl)-6,7-dihydropyrazolo-[1,5-a]pyrazin-5(4H)-yl)(3,3-dimethylcyclobutyl)-methanone], for which the IC50 at PRMT1 [1] worked out at 254 nM; in the experiment on DOHH2 cells, 202 nM; on PRMT1 [2], 84 nM.

Regarding `CNCCN(C)Cc1nn2c(c1C1CCC(COC)(COC)CC1)CN(C(=O)C(C)(C)C1CCC1)CC2` [Example 78, 1-(3-(4,4-bis(methoxy-methyl)cyclohexyl)-2-((methyl(2-(methylamino)-ethyl)amino)methyl)-6,7-dihydropyrazolo[1,5-a]-pyrazin-5(4H)-yl)-2-cyclobutyl-2-methylpropan-1-one], the IC50 at PRMT1 [1] is 192 nM; with DOHH2 cells (Homo sapiens, DOHH-2, 168 h), 154 nM; at PRMT1 [2], 68 nM.

As to `CNCCN(C)Cc1nn2c(c1C1CCC(COC)(COC)CC1)CN(C(=O)C1CCC(C)(C)O1)CC2` (stereo not drawn) [Example 79, (3-(4,4-bis(methoxymethyl)-cyclohexyl)-2-((methyl(2-(methylamino)ethyl)amino)-methyl)-6,7-dihydropyrazolo-[1,5-a]pyrazin-5(4H)-yl)(5,5-dimethyltetrahydrofuran-2-yl)methanone], the IC50 came out at 688 nM on PRMT1 [1]; 303 nM with DOHH2 cells (Homo sapiens, DOHH-2, 168 h); 217 nM on PRMT1 [2].
